Test results as given in PubChem BioAssay (NCI).
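Compound exposure: 48 hours, 5 concentrations, 96-well plates. TGI marks complete inhibition of growth.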

Columns and labels:
Test in all cases: NCI tumour cell line growth inhibition, 48 h
MDA-MB-231 breast = test system: MDA-MB-231 breast
ACHN renal = test system: ACHN renal
NCI-H226 lung = test system: NCI-H226 lung
SNB-75 CNS = test system: SNB-75 CNS
OVCAR-8 ovarian = test system: OVCAR-8 ovarian
MCF7 breast = test system: MCF7 breast
KM12 colon = test system: KM12 colon
PC-3 prostate = test system: PC-3 prostate
UACC-257 melanoma = test system: UACC-257 melanoma
HOP-92 NSCLC = test system: HOP-92 NSCLC
HCC-2998 colon = test system: HCC-2998 colon
HT29 colon = test system: HT29 colon
DU-145 prostate = test system: DU-145 prostate
HOP-62 NSCLC = test system: HOP-62 NSCLC
CAKI-1 renal = test system: CAKI-1 renal
M14 melanoma = test system: M14 melanoma
SF-539 CNS = test system: SF-539 CNS
HCT-15 colon = test system: HCT-15 colon
RPMI-8226 leukemia = test system: RPMI-8226 leukemia
IGROV1 ovarian = test system: IGROV1 ovarian
SR leukemia = test system: SR leukemia
HL-60(TB) leukemia = test system: HL-60(TB) leukemia
SK-OV-3 ovarian = test system: SK-OV-3 ovarian
MOLT-4 leukemia = test system: MOLT-4 leukemia
786-0 renal = test system: 786-0 renal
SN12C renal = test system: SN12C renal
SK-MEL-28 melanoma = test system: SK-MEL-28 melanoma
MDA-N = test system: MDA-N
HCT-116 colon = test system: HCT-116 colon
OVCAR-4 ovarian = test system: OVCAR-4 ovarian
TK-10 renal = test system: TK-10 renal
NCI/ADR-RES ovarian = test system: NCI/ADR-RES ovarian
T-47D breast = test system: T-47D breast
HS 578T breast = test system: HS 578T breast
SF-268 CNS = test system: SF-268 CNS
UO-31 renal = test system: UO-31 renal
SK-MEL-2 melanoma = test system: SK-MEL-2 melanoma
NCI-H522 lung = test system: NCI-H522 lung
OVCAR-3 ovarian = test system: OVCAR-3 ovarian
LOX IMVI melanoma = test system: LOX IMVI melanoma
NCI-H460 lung = test system: NCI-H460 lung
K-562 leukemia = test system: K-562 leukemia
COLO 205 colon = test system: COLO 205 colon
UACC-62 melanoma = test system: UACC-62 melanoma
A549 NSCLC = test system: A549 NSCLC
MDA-MB-435 = test system: MDA-MB-435
A498 renal = test system: A498 renal
EKVX NSCLC = test system: EKVX NSCLC
SK-MEL-5 melanoma = test system: SK-MEL-5 melanoma
SF-295 CNS = test system: SF-295 CNS
U251 CNS = test system: U251 CNS
BT-549 breast = test system: BT-549 breast
SNB-19 CNS = test system: SNB-19 CNS
SW-620 colon = test system: SW-620 colon
OVCAR-5 ovarian = test system: OVCAR-5 ovarian
RXF 393 renal = test system: RXF 393 renal
CCRF-CEM leukemia = test system: CCRF-CEM leukemia
MALME-3M melanoma = test system: MALME-3M melanoma
NCI-H23 lung = test system: NCI-H23 lung

Measured: TGI

CC1(C)OCC(/C=C\C(O)CC2(C)OCCO2)CO1 (stereo not drawn)
> 100 µM: MDA-MB-231 breast | ACHN renal | NCI-H226 lung | SNB-75 CNS | OVCAR-8 ovarian | MCF7 breast | KM12 colon | PC-3 prostate | UACC-257 melanoma | HOP-92 NSCLC | HCC-2998 colon | HT29 colon | DU-145 prostate | HOP-62 NSCLC | CAKI-1 renal | M14 melanoma | SF-539 CNS | HCT-15 colon | RPMI-8226 leukemia | IGROV1 ovarian | SR leukemia | HL-60(TB) leukemia | SK-OV-3 ovarian | MOLT-4 leukemia | 786-0 renal | SN12C renal | SK-MEL-28 melanoma | MDA-N | HCT-116 colon | OVCAR-4 ovarian | TK-10 renal | NCI/ADR-RES ovarian | T-47D breast | HS 578T breast | SF-268 CNS | UO-31 renal | SK-MEL-2 melanoma | NCI-H522 lung | OVCAR-3 ovarian | LOX IMVI melanoma | NCI-H460 lung | K-562 leukemia | COLO 205 colon | UACC-62 melanoma | A549 NSCLC | MDA-MB-435 | A498 renal | EKVX NSCLC | SK-MEL-5 melanoma | SF-295 CNS | U251 CNS | BT-549 breast | SNB-19 CNS | SW-620 colon | OVCAR-5 ovarian

O=C(OC1C#CCSCC#C/C=C\1)c1ccc2c(c1)C(=O)c1ccccc1C2=O (stereo not drawn)
80.6 µM: TK-10 renal
40.7 µM: SF-539 CNS
54.1 µM: BT-549 breast
42.8 µM: HOP-62 NSCLC
34.2 µM: UACC-62 melanoma
13.7 µM: HOP-92 NSCLC
47.1 µM: RXF 393 renal
70.6 µM: SK-OV-3 ovarian
59.7 µM: SNB-19 CNS
> 100 µM: ACHN renal | NCI-H226 lung | SNB-75 CNS | OVCAR-8 ovarian | MCF7 breast | KM12 colon | PC-3 prostate | UACC-257 melanoma | HCC-2998 colon | HT29 colon | DU-145 prostate | CAKI-1 renal | M14 melanoma | HCT-15 colon | CCRF-CEM leukemia | RPMI-8226 leukemia | IGROV1 ovarian | SR leukemia | HL-60(TB) leukemia | MALME-3M melanoma | MOLT-4 leukemia | SN12C renal | SK-MEL-28 melanoma | MDA-N | NCI-H23 lung | HCT-116 colon | OVCAR-4 ovarian | NCI/ADR-RES ovarian | T-47D breast | HS 578T breast | UO-31 renal | SK-MEL-2 melanoma | OVCAR-3 ovarian | LOX IMVI melanoma | NCI-H460 lung | K-562 leukemia | COLO 205 colon | A549 NSCLC | MDA-MB-435 | A498 renal | EKVX NSCLC | SK-MEL-5 melanoma | SF-295 CNS | SW-620 colon | OVCAR-5 ovarian
55.9 µM: U251 CNS
69.1 µM: SF-268 CNS
82.4 µM: MDA-MB-231 breast
62.7 µM: NCI-H522 lung
